Data set [1] can be described thus: Hepatic intrinsic clearance following incubation in human liver microsomes. It is filed as in vitro ADME. Conditions: 0.5 μM test compound, NADPH, 0-30 min, scaled to g liver. Here is the method:
Hepatic Extraction Ratio from Hepatic Intrinsic Clearance Following Incubation in Human Liver Microsomes
The general procedure consists of an automated incubation system and LC-MS/MS analysis with human liver microsomes. Human liver microsomes are thawed rapidly in a waterbath at 37° C. and kept on ice until use. The human liver microsomes are diluted with 50 mM potassium phosphate buffer pH 7.4 to a protein concentration of 0.55 mg/mL. Test compounds and positive controls (Verapamil and Dextromethorphan, positive controls for CYP3A4 for CYP2D6 isoforms, respectively) are dissolved in methanol (or other appropriate solvent, if necessary) in order to obtain a 5 mM solution which is further diluted to the concentration of 50 μM. The stock solutions are prepared immediately before the test.
5 μL of 50 μM test compounds and controls are added to 445 μL-of the 0.55 mg/mL microsomes solution and the incubation mixture are pre-warmed at 37° C. for 5 minutes. The incubation reactions are initiated by adding 50 μL of pre-warmed NADPH regenerating system to the incubation mixtures. 50 μL-aliquots will be taken from the incubation mixtures at: 0, 3, 6, 9, 15 and 30 minutes and the reactions are stopped by adding 100 μL of ACN containing Rolipram, used as generic Internal Standard (IS). Samples are then diluted with 120 μL of Milli-Q water and centrifuged at 3000 rpm for 10 minutes, prior the LC-MS/MS analysis.
The integrated peak areas for test compounds at the selected time points are divided by the respective peak areas of the IS and the percent of parent remaining is calculated by normalizing the peak area ratio of parent to IS at 0 min. Observed rate constant (kobs) for parent degradation is calculated by determining the slope of the line of the graph of the natural log of percentage parent remaining versus time of incubation. From the rate of depletion (min−1) and volume of the incubation (mL), clearance is estimated. This is scaled for the protein in the incubation relative to that in the intact liver, for all species (mL/min/g liver).
Values for the Human in vitro Clint are expressed as mL/min/g liver.
Assuming a liver weight of 25.7 g/kg and a liver blood flow of 20.7 mL/min/kg, the hepatic extraction ratio, Eh, can be derived from the Human in vitro Clint:
E.g. a Human in vitro Clint of 2.4 mL/min/g liver corresponds to a hepatic extraction ratio of 75%.
Some compounds of the present invention were tested according to example 101.
For orientation: Microsomes from liver hold many membrane-bound enzymes, among them those of drug oxidation.

Another data set addresses T1, NK1 Receptor (Homo sapiens, UniProt P25103).
T1 construct: Measurement of NK1 Receptor Mediated Intracellular [Ca^2+]; Mobilization in U251 MG Cells Using FLIPR; endogenous in cells; host or cells: U251 MG cells
Nature of the data set: NK1 receptor mediated intracellular [Ca2+] mobilization in U251 MG cells using FLIPR. It is filed as cell-based. Conditions: antagonism of Substance P (EC80), Fluo-4, read-out: NK1R mediated intracellular [Ca^2+] mobilization IC 50. Here is the method: Measurement of NK1 Receptor Mediated Intracellular [Ca^2+] Mobilization in U251 MG Cells Using FLIPR
U251 MG cells were seeded into black walled clear-bottom 384-well plates (Greiner Bio-One GmbH, Frickenhausen, Germany) at a density of 15,000 cells/well in 50 μl culture medium and cultured overnight in a 37° C. 5% CO2 incubator. The cells were then loaded with the calcium sensitive dye Fluo-4 (Invitrogen) at 1 μM in buffer, containing 0.04% Pluronic F-127 (Sigma-Aldrich), and 2.5 mM probenecid (Sigma-Aldrich) for 60 min in a humidified atmosphere of 5% CO2. Thereafter, cells were washed three times in washing buffer containing 20 mM HEPES and 2.5 mM probenecid pH 7.3. Serial dilutions of test compounds in assay buffer containing 2% dimethyl sulfoxide (final concentration in the cell plate is 0.5% DMSO) and/or agonist were then automatically pipetted into each test well, and the peak fluorescence intensity was recorded (lex, 488 nm; lem, 540 nm) by the FLIPR instrument (Molecular Devices) for approximately 5 min. To measure antagonist potency, cell plates were first incubated with the test compound and intracellular fluorescence recorded for 5 minutes to check a potential agonist effect of the test compound. Cell plates were quickly removed from the FLIPR instrument and incubated for additional 10 minutes at 37° C. before being moved back to the FLIPR instrument for Substance P (EC80) addition. The response was measured as the peak relative fluorescence change after agonist addition.
Compound relative %-effect was normalized to the maximal response evoked by 100 nM Aprepitant in presence of the EC80 of Substance P and the antagonist potency determined by non-linear regression using GraphPad Prism (version 5) or the four-parameter logistic model in XLfit (IDBS, Guilford, UK) for Microsoft Excel (Microsoft, Redmond, Wash.). The IC50 value is defined as the molar concentration of a test compound that produces a response midway between the fitted top and the fitted bottom. pIC50=−log IC50
Formula is listed as follows:
Fit (% Effect calculated)=(A+((B−A)/(1+((C/X)̂D)))) • A: bottom value • B: top value • C: test compound concentration • X: Relative IC50 • D: Hill slope coefficient
Ref: Sullivan E, Tucker E M, and Dale I L. Measurement of [Ca^2+] using the Fluorometric Imaging Plate Reader (FLIPR). Methods Mol Biol 114:125-133, 1999.
Compounds of the present invention were tested according to example 100.

The values below come from patent US20160207930A1 (LEO PHARMA A/S, priority 2013, published 2016).

pIC50: −log10 of the molar value.

T1 sequence (P25103 whole entry): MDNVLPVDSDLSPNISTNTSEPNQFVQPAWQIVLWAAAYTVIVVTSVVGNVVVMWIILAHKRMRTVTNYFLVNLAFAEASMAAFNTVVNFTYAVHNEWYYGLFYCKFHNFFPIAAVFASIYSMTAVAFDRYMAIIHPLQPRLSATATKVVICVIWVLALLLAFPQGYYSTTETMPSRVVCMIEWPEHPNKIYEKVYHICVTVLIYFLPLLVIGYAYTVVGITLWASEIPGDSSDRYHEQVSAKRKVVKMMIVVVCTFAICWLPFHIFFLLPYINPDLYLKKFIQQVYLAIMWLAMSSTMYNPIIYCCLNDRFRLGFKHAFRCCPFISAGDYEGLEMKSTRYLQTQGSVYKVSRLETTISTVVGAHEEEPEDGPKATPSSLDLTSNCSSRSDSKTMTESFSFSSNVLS

For the compound `Cc1ccc([C@@H]2[C@H]3CCC(=O)N3CCN2C(=O)N(C)Cc2cc(C(F)(F)F)cc(C(F)(F)F)c2)c(C)c1` (racemic) [Compound 3, N-(3,5-bis(trifluoromethyl)benzyl)-1-(2,4-dimethylphenyl)-N-methyl-6-oxohexahydropyrrolo[1,2-a]pyrazine-2(1H)-carboxamide], the “Human in vitro Clint” value in data set [1] was above 200 mL/min/g. In addition, the pIC50 at NK1 Receptor was 9.53. For the compound `Cc1cc([C@@H](C)N(C)C(=O)N2CCN3C(=O)C(CCO)(CCO)CC3C2c2ccc(C)cc2C)cc(C(F)(F)F)c1` (mixture of isomers) [Compound 8, 1-(2,4-dimethylphenyl)-7,7-bis(2-hydroxyethyl)-N-methyl-N—((R)-1-(3-methyl-5-(trifluoromethyl)phenyl)ethyl)-6-oxo-hexahydropyrrolo[1,2-a]pyrazine-2(1H)-carboxamide], in data set [1], the “Human in vitro Clint” value is above 200 mL/min/g. Besides, the pIC50 on NK1 Receptor was 10.02.

For the compound `Cc1ccc([C@@H]2[C@H]3CC(CCO)(CCO)C(=O)N3CCN2C(=O)N(C)Cc2cc(C(F)(F)F)cc(C(F)(F)F)c2)c(C)c1` (racemic) [Compound 9, N-(3,5-bis(trifluoromethyl)benzyl)-1-(2,4-dimethylphenyl)-7,7-bis(2-hydroxyethyl)-N-methyl-6-oxohexahydropyrrolo[1,2-a]pyrazine-2(1H)-carboxamide], in data set [1], the “Human in vitro Clint” value was above 200 mL/min/g. The pIC50 on NK1 Receptor is 9.74. Consider `Cc1ccc(C2C3CCC(=O)N3CCN2C(=O)N(C)[C@H](C)c2cc(C(F)(F)F)cc(C(F)(F)F)c2)c(C)c1` (single isomer, unassigned) [Compound 1], for which the “Human in vitro Clint” value in data set [1] was above 200 mL/min/g. Further, the pIC50 at NK1 Receptor was 9.81.

`Cc1ccc(C2C3CCC(=O)N3CCN2C(=O)N(C)[C@H](C)c2cc(C(F)(F)F)cc(C(F)(F)F)c2)c(C)c1` (single isomer, unassigned) [Compound 2]: in data set [1], the “Human in vitro Clint” value was above 200 mL/min/g. The pIC50 on NK1 Receptor was 8.11. For `Cc1cc([C@@H](C)N(C)C(=O)N2CCN3C(=O)CCC3C2c2ccc(C)cc2C)cc(C(F)(F)F)c1` (single isomer, unassigned) [Compound 4], the “Human in vitro Clint” value in data set [1] was above 200 mL/min/g. At NK1 Receptor, the pIC50 is 8.03. As to `Cc1cc([C@@H](C)N(C)C(=O)N2CCN3C(=O)CCC3C2c2ccc(C)cc2C)cc(C(F)(F)F)c1` (single isomer, unassigned) [Compound 5], in data set [1], the “Human in vitro Clint” value was above 200 mL/min/g. Moreover, the pIC50 at NK1 Receptor was 9.36. Turning to `Cc1ccc(C2C3CC(CCO)(CCO)C(=O)N3CCN2C(=O)N(C)[C@H](C)c2cc(C(F)(F)F)cc(C(F)(F)F)c2)c(C)c1` (single isomer, unassigned) [Compound 6], the “Human in vitro Clint” value in data set [1] was above 200 mL/min/g. Further, the pIC50 on NK1 Receptor is 8.80. In the case of `Cc1ccc(C2C3CC(CCO)(CCO)C(=O)N3CCN2C(=O)N(C)[C@H](C)c2cc(C(F)(F)F)cc(C(F)(F)F)c2)c(C)c1` (single isomer, unassigned) [Compound 7], in data set [1], the “Human in vitro Clint” value is above 200 mL/min/g. Besides, the pIC50 on NK1 Receptor was 10.10.

Take `Cc1cc(F)ccc1C1C2CC(CCO)(CCO)C(=O)N2CCN1C(=O)N(C)[C@H](C)c1cc(Cl)cc(C(F)(F)F)c1` (single isomer, unassigned) [Compound 10]: the “Human in vitro Clint” value in data set [1] was above 200 mL/min/g. Also, on NK1 Receptor, the pIC50 was 10.20. As for `Cc1cc(F)ccc1C1C2CC(CCO)(CCO)C(=O)N2CCN1C(=O)N(C)[C@H](C)c1cc(Cl)cc(C(F)(F)F)c1` (single isomer, unassigned) [Compound 11], the “Human in vitro Clint” value in data set [1] was above 200 mL/min/g. In addition, the pIC50 on NK1 Receptor was 9.21. As for `Cc1cc([C@@H](C)N(C)C(=O)N2CCN3C(=O)C(CCO)(CCO)CC3C2c2ccc(F)cc2C)cc(C(F)(F)F)c1` (single isomer, unassigned) [Compound 12], the “Human in vitro Clint” value in data set [1] was above 200 mL/min/g. Further, the pIC50 at NK1 Receptor was 9.21. Take `Cc1cc([C@@H](C)N(C)C(=O)N2CCN3C(=O)C(CCO)(CCO)CC3C2c2ccc(F)cc2C)cc(C(F)(F)F)c1` (single isomer, unassigned) [Compound 13]: the “Human in vitro Clint” value in data set [1] is above 200 mL/min/g. The pIC50 on NK1 Receptor was 10.47. For `Cc1cc(F)ccc1C1C2CC(CCO)(CCO)C(=O)N2CCN1C(=O)N(C)[C@H](C)c1cc(C(F)(F)F)cc(C(F)(F)F)c1` (single isomer, unassigned) [Compound 14] the same measures were above 200 mL/min/g and 10.03.

On to `Cc1cc(F)ccc1C1C2CC(CCO)(CCO)C(=O)N2CCN1C(=O)N(C)[C@H](C)c1cc(C(F)(F)F)cc(C(F)(F)F)c1` (single isomer, unassigned) [Compound 15], for which the “Human in vitro Clint” value in data set [1] stood at 104 mL/min/g. Also, the pIC50 on NK1 Receptor is 8.60.

For `C[C@H](c1cc(C(F)(F)F)cc(C(F)(F)F)c1)N(C)C(=O)N1CCN2C(=O)CC[C@H]2[C@@H]1c1ccccc1Cl` (single isomer, unassigned) [Compound 72], the pIC50 on NK1 Receptor is 10.70.

Take `C[C@H](c1cc(C(F)(F)F)cc(C(F)(F)F)c1)N(C)C(=O)N1CCN2C(=O)CC[C@H]2[C@@H]1c1ccccc1Cl` (single isomer, unassigned) [Compound 73]: at NK1 Receptor, the pIC50 is 8.86. Regarding `C[C@H](c1cc(C(F)(F)F)cc(C(F)(F)F)c1)N(C)C(=O)N1CCN2C(=O)CC[C@H]2[C@@H]1c1ccc(F)cc1Cl` (single isomer, unassigned) [Compound 83], at NK1 Receptor, the pIC50 was 10.22. Take `C[C@H](c1cc(C(F)(F)F)cc(C(F)(F)F)c1)N(C)C(=O)N1CCN2C(=O)CC[C@H]2[C@@H]1c1ccc(F)cc1Cl` (single isomer, unassigned) [Compound 84]: the pIC50 at NK1 Receptor was 8.94.

For the compound `Cc1cccnc1[C@H]1[C@@H]2CCC(=O)N2CCN1C(=O)N(C)[C@H](C)c1cc(C(F)(F)F)cc(C(F)(F)F)c1` [Compound 43, (1R,8aS)—N—((R)-1-(3,5-bis(trifluoromethyl)phenyl)ethyl)-N-methyl-1-(3-methylpyridin-2-yl)-6-oxo-hexahydropyrrolo[1,2-a]pyrazine-2(1H)-carboxamide], on NK1 Receptor, the pIC50 was 8.53. Consider `Cc1ncccc1[C@H]1[C@@H]2CCC(=O)N2CCN1C(=O)N(C)[C@H](C)c1cc(C(F)(F)F)cc(C(F)(F)F)c1` [Compound 47, (1S,8aS)—N—((R)-1-(3,5-bis(trifluoromethyl)phenyl)ethyl)-N-methyl-1-(2-methylpyridin-3-yl)-6-oxo-hexahydropyrrolo[1,2-a]pyrazine-2(1H)-carboxamide], for which the pIC50 on NK1 Receptor was 9.05. Still for that read-out and setting: next, `Cc1n[nH]cc1[C@H]1[C@@H]2CCC(=O)N2CCN1C(=O)N(C)[C@H](C)c1cc(C(F)(F)F)cc(C(F)(F)F)c1` [Compound 60, (1S,8aS)—N—((R)-1-(3,5-bis(trifluoromethyl)phenyl)ethyl)-N-methyl-1-(3-methyl-1H-pyrazol-4-yl)-6-oxohexahydropyrrolo[1,2-a]pyrazine-2(1H)-carboxamide]: 7.50.
